# Test results taken from ChEMBL document CHEMBL6109078, “Pyrylium derivatives as outer membrane permeabilizers against MDR gram-negative bacteria via multi-target mode of action” (Eur J Med Chem, 2025).
# Calls of active or inactive are those of the source. No cut-off for these calls is given here.
# Assays:
# Acinetobacter baumannii [1] = experiment: Synergistic antibacterial activity against multi-drug resistant Acinetobacter baumannii clinical isolate 1 assessed as inhibition of bacterial growth by measuring polymyxin B MIC by checkerboard assay; assay type: functional
# Bacteria = experiment: Binding affinity to His-tagged LptA (unknown origin) extracted from Escherichia coli BL21 (DE3) cells by BLI analysis
# Acinetobacter baumannii [2] = experiment: Antibacterial activity against multi-drug resistant Acinetobacter baumannii clinical isolate 4 assessed as inhibition of bacterial growth by CLSI protocol based method; assay type: functional
# Acinetobacter baumannii [3] = experiment: Synergistic antibacterial activity against Acinetobacter baumannii ATCC 19606 assessed as inhibition of bacterial growth by measuring polymyxin B MIC by checkerboard assay; assay type: functional
# Acinetobacter baumannii [4] = experiment: Synergistic antibacterial activity against multi-drug resistant Acinetobacter baumannii clinical isolate 5 assessed as inhibition of bacterial growth in presence of polymyxin B by checkerboard assay; assay type: functional
# Acinetobacter baumannii [5] = experiment: Synergistic antibacterial activity against multi-drug resistant Acinetobacter baumannii clinical isolate 43 assessed as fractional inhibitory concentration index in presence of amikacin by checkerboard assay; assay type: functional
# Acinetobacter baumannii [6] = experiment: Synergistic antibacterial activity against multi-drug resistant Acinetobacter baumannii clinical isolate 1 assessed as fractional inhibitory concentration index in presence of polymyxin B by checkerboard assay; assay type: functional
# Acinetobacter baumannii [7] = experiment: Antibacterial activity against Acinetobacter baumannii ATCC 19606 assessed as inhibition of bacterial growth by measuring decrease in bacterial count at 6.25 to 50 microg/ml measured after 12 hrs by time-kill kinetics analysis; assay type: functional; conditions: dose 6.25-50 µg/ml
# Escherichia coli [8] = experiment: Synergistic antibacterial activity against Escherichia coli CG-4 expressing MCR-1 and NDM-1 assessed as fractional inhibitory concentration index in presence of gentamycin by checkerboard assay; assay type: functional
# Escherichia coli [9] = experiment: Synergistic antibacterial activity against Escherichia coli ATCC 25922 assessed as inhibition of bacterial growth in presence of polymyxin B by checkerboard assay; assay type: functional
# Acinetobacter baumannii [10] = experiment: Synergistic antibacterial activity against multi-drug resistant Acinetobacter baumannii clinical isolate 14 assessed as inhibition of bacterial growth in presence of polymyxin B by checkerboard assay; assay type: functional
# Acinetobacter baumannii [11] = experiment: Synergistic antibacterial activity against multi-drug resistant Acinetobacter baumannii clinical isolate 5 assessed as fractional inhibitory concentration index in presence of gentamycin by checkerboard assay; assay type: functional
# Acinetobacter baumannii [12] = experiment: Synergistic antibacterial activity against Acinetobacter baumannii ATCC 19606 assessed as fractional inhibitory concentration index in presence of amikacin by checkerboard assay; assay type: functional
# Escherichia coli [13] = experiment: Synergistic antibacterial activity against multi-drug resistant Escherichia coli clinical isolate 1 assessed as inhibition of bacterial growth in presence of polymyxin B by checkerboard assay; assay type: functional
# Escherichia coli [14] = experiment: Synergistic antibacterial activity against Escherichia coli CG-4 expressing MCR-1 and NDM-1 assessed as inhibition of bacterial growth by measuring polymyxin B MIC by checkerboard assay; assay type: functional
# Acinetobacter baumannii [15] = experiment: Synergistic antibacterial activity against Acinetobacter baumannii ATCC 19606 assessed as inhibition of bacterial growth in presence of polymyxin B by checkerboard assay; assay type: functional
# Acinetobacter baumannii [16] = experiment: Synergistic antibacterial activity against multi-drug resistant Acinetobacter baumannii clinical isolate 5 assessed as fractional inhibitory concentration index in presence of polymyxin B by checkerboard assay; assay type: functional
# Acinetobacter baumannii [17] = experiment: Synergistic antibacterial activity against Acinetobacter baumannii ATCC 19606 assessed as fractional inhibitory concentration index in presence of gentamycin by checkerboard assay; assay type: functional
# Acinetobacter baumannii [18] = experiment: Synergistic antibacterial activity against multi-drug resistant Acinetobacter baumannii clinical isolate 14 assessed as fractional inhibitory concentration index in presence of amikacin by checkerboard assay; assay type: functional
# Klebsiella pneumoniae [19] = experiment: Synergistic antibacterial activity against Klebsiella pneumoniae assessed as inhibition of bacterial growth in presence of aminoglycoside by checkerboard assay; assay type: functional, organism-based
# Escherichia coli [20] = experiment: Synergistic antibacterial activity against Escherichia coli ATCC 35218 assessed as inhibition of bacterial growth by measuring polymyxin B MIC by checkerboard assay; assay type: functional; conditions: Escherichia coli, ATCC 35218; read-out: MIC
# Acinetobacter baumannii [21] = experiment: Synergistic antibacterial activity against multi-drug resistant Acinetobacter baumannii clinical isolate 5 assessed as fractional inhibitory concentration index in presence of amikacin by checkerboard assay; assay type: functional
# Escherichia coli [22] = experiment: Antibacterial activity against Escherichia coli CG-4 expressing MCR-1 and NDM-1 assessed as inhibition of bacterial growth by CLSI protocol based method; assay type: functional
# Pseudomonas aeruginosa [23] = experiment: Synergistic antibacterial activity against Pseudomonas aeruginosa assessed as inhibition of bacterial growth in presence of aminoglycoside by checkerboard assay; assay type: functional, organism-based
# Escherichia coli [24] = experiment: Synergistic antibacterial activity against Escherichia coli ATCC 35218 assessed as fractional inhibitory concentration index in presence of gentamycin by checkerboard assay; assay type: functional
# Acinetobacter baumannii [25] = experiment: Synergistic antibacterial activity against multi-drug resistant Acinetobacter baumannii clinical isolate 1 assessed as fractional inhibitory concentration index in presence of gentamycin by checkerboard assay; assay type: functional
# Acinetobacter baumannii [26] = experiment: Antibacterial activity against multi-drug resistant Acinetobacter baumannii clinical isolate 5 assessed as inhibition of bacterial growth by CLSI protocol based method; assay type: functional
# Klebsiella pneumoniae [27] = experiment: Antibacterial activity against Klebsiella pneumoniae BAA ATCC 1706 assessed as inhibition of bacterial growth by CLSI protocol based method; assay type: functional
# Escherichia coli [28] = experiment: Synergistic antibacterial activity against Escherichia coli ATCC 35218 assessed as fractional inhibitory concentration index in presence of amikacin by checkerboard assay; assay type: functional
# Escherichia coli [29] = experiment: Synergistic antibacterial activity against Escherichia coli ATCC 25922 assessed as inhibition of bacterial growth by measuring polymyxin B MIC by checkerboard assay; assay type: functional
# Acinetobacter baumannii [30] = experiment: Antibacterial activity against multi-drug resistant Acinetobacter baumannii clinical isolate 14 assessed as inhibition of bacterial growth by CLSI protocol based method; assay type: functional
# Acinetobacter baumannii [31] = experiment: Antibacterial activity against multi-drug resistant Acinetobacter baumannii clinical isolate 43 assessed as inhibition of bacterial growth by CLSI protocol based method; assay type: functional
# Klebsiella pneumoniae [32] = experiment: Synergistic antibacterial activity against Klebsiella pneumoniae assessed as inhibition of bacterial growth in presence of polymyxin B by checkerboard assay; assay type: functional, organism-based
# Pseudomonas aeruginosa [33] = experiment: Synergistic antibacterial activity against Pseudomonas aeruginosa assessed as inhibition of bacterial growth in presence of polymyxin B by checkerboard assay; assay type: functional, organism-based
# Acinetobacter baumannii [34] = experiment: Synergistic antibacterial activity against multi-drug resistant Acinetobacter baumannii clinical isolate 14 assessed as fractional inhibitory concentration index in presence of gentamycin by checkerboard assay; assay type: functional
# Acinetobacter baumannii [35] = experiment: Synergistic antibacterial activity against Acinetobacter baumannii ATCC 19606 assessed as fractional inhibitory concentration index in presence of polymyxin B by checkerboard assay; assay type: functional
# Acinetobacter baumannii [36] = experiment: Synergistic antibacterial activity against multi-drug resistant Acinetobacter baumannii clinical isolate 14 assessed as inhibition of bacterial growth by measuring polymyxin B MIC by checkerboard assay; assay type: functional
# Escherichia coli [37] = experiment: Antibacterial activity against Escherichia coli ATCC 25922 assessed as inhibition of bacterial growth by measuring decrease in bacterial count at 6.25 to 50 microg/ml measured after 12 hrs by time-kill kinetics analysis; assay type: functional; conditions: dose 6.25-50 µg/ml
# Klebsiella pneumoniae [38] = experiment: Antibacterial activity against Klebsiella pneumoniae ATCC 700603 assessed as inhibition of bacterial growth by CLSI protocol based method; assay type: functional
# Acinetobacter baumannii [39] = experiment: Antibacterial activity against multi-drug resistant Acinetobacter baumannii clinical isolate 1 assessed as inhibition of bacterial growth by CLSI protocol based method; assay type: functional
# Acinetobacter baumannii [40] = experiment: Antibacterial activity against Acinetobacter baumannii ATCC 19606 assessed as inhibition of bacterial growth by CLSI protocol based method; assay type: functional
smiles,measurement,setting,value
CCN(CC)c1ccc(/C=C/c2cc(C(C)(C)C)[o+]c(C(C)(C)C)c2)cc1.O=S(=O)([O-])C(F)(F)F,MIC,Acinetobacter baumannii [1],0.2 µg/mL
same,Activity,Bacteria,Dose-dependent-effect
same,MIC,Acinetobacter baumannii [2],12.5 µg/mL
same,MIC,Acinetobacter baumannii [3],0.006 µg/mL
same,MIC,Acinetobacter baumannii [4],1.56 µg/mL
same,fractional inhibitory concentration index (FICI),Acinetobacter baumannii [5],0.125
same,fractional inhibitory concentration index (FICI),Acinetobacter baumannii [6],<0.064
same,Activity,Acinetobacter baumannii [7],<6 log10CFU/ml
same,fractional inhibitory concentration index (FICI),Escherichia coli [8],0.125
same,MIC,Escherichia coli [9],1.56 µg/mL
same,MIC,Acinetobacter baumannii [10],1.56 µg/mL
same,fractional inhibitory concentration index (FICI),Acinetobacter baumannii [11],0.125
same,fractional inhibitory concentration index (FICI),Acinetobacter baumannii [12],0.125
same,MIC,Escherichia coli [13],3.12 µg/mL
same,MIC,Escherichia coli [14],0.78 µg/mL
same,MIC,Acinetobacter baumannii [15],0.78 µg/mL
same,fractional inhibitory concentration index (FICI),Acinetobacter baumannii [16],0.188
same,fractional inhibitory concentration index (FICI),Acinetobacter baumannii [17],0.125
same,fractional inhibitory concentration index (FICI),Acinetobacter baumannii [18],0.125
same,Activity,Klebsiella pneumoniae [19],inactive
same,MIC,Escherichia coli [20],0.013 µg/mL
same,fractional inhibitory concentration index (FICI),Acinetobacter baumannii [21],0.125
same,MIC,Escherichia coli [22],12.5 µg/mL
same,Activity,Pseudomonas aeruginosa [23],inactive
same,fractional inhibitory concentration index (FICI),Escherichia coli [24],0.125
same,fractional inhibitory concentration index (FICI),Acinetobacter baumannii [25],0.125
same,MIC,Acinetobacter baumannii [26],12.5 µg/mL
same,MIC,Klebsiella pneumoniae [27],12.5 µg/mL
same,fractional inhibitory concentration index (FICI),Escherichia coli [28],0.125
same,MIC,Escherichia coli [29],7.8 10^-4 ug/ml
same,MIC,Acinetobacter baumannii [30],12.5 µg/mL
same,MIC,Acinetobacter baumannii [31],12.5 µg/mL
same,Activity,Klebsiella pneumoniae [32],inactive
same,Activity,Pseudomonas aeruginosa [33],inactive
same,fractional inhibitory concentration index (FICI),Acinetobacter baumannii [34],0.125
same,fractional inhibitory concentration index (FICI),Acinetobacter baumannii [35],0.188
same,MIC,Acinetobacter baumannii [36],0.006 µg/mL
same,Activity,Escherichia coli [37],<6 log10CFU/ml
same,MIC,Klebsiella pneumoniae [38],> 100 µg/mL
same,MIC,Acinetobacter baumannii [39],25 µg/mL
same,MIC,Acinetobacter baumannii [40],12.5 µg/mL
